Test results taken from patent publication US12297186B2, “Benzylamide derivatives as inhibitors of transforming growth factor-beta receptor I/ALK5” (AGOMAB SPAIN, S.L.U., priority 2019, dated 2025).
Where two headings read alike, the source gives them in different places.

Legend:
Human TGFβR-1 kinase = Human TGFβR-1 kinase (Homo sapiens (Human), UniProt P36897); experiment: In vitro enzyme assay: inhibition of TGFβR-1 kinase activity (ADP-Glo); format: biochemical; details: TGFβR-1 kinase, 50 μM ATP; read-out: IC50 range
Experimental: In Vitro Enzyme Assay: Inhibition of TGFβR-1Kinase Activity
Human TGFβl R-1 inhibition experiments were carried out in a white 384-microplate low flange (Corning 3572) with ADP-Glo kinase Assay Kit (Promega V9101) and TGβR-1 Kinase Enzyme System (Promega V4092). […] The reaction mixture was incubated in gentle shaking for 120 min at RT, after incubation of 10 μL of ADP-Glo Reagent was added and incubated in gentle shaking for 40 min at RT. 20 μL of Kinase Detection Reagent was added and plate was incubated in gentle shaking for 30 min at RT. Luminiscence (1000 ms) was measured in Perkin Elmer EnSpire Multimode plate reader.

TGF-beta kinase (ALK-5) = TGF-beta kinase (ALK-5) (Homo sapiens (Human), UniProt P36897); experiment: Determination of the intracellular TGF-beta kinase activity (ALK-5), p-SMAD3 AlphaLISA in A549 cells; format: cell-based; details: A549 cell line, TGF-β2 activated, p-SMAD3; read-out: IC50 range
Experimental: Determination of the Intracellular TGF-beta Kinase Activity (ALK-5)
The experiments were carried out in A549 cell line. 30000 cells were seeded in 200 μl of culture medium (Sigma D6046) supplemented with L-Glutamine (Sigma G7513), Penicillin/Streptomycin (Invitrogen 11058) and FBS (Sigma F9665) on a 96 wells microplate (Becton Dickinson 353072). After 16 hours medium waschanged to serum free medium.

[1] = Plasma pharmacokinetic assay, single oral administration; format: in vivo, male Sprague Dawley rats; details: rat, P.O., 5 mg/kg
Experimental: Plasma Pharmacokinetic Assay
The objective of this study was to investigate the plasma pharmacokinetics of some compounds of the present invention in male Sprague Dawley rats following a single oral administration. Three rats per compound were used in this study. Animals were administered with suspension formulation of each compound in 0.5% Tween-80 and 99.5% NaCMC (0.5% w/v in RO Water) by oral route at 5 mg/kg. The blood samples were collected from set of three rats at each time point in labelled micro centrifuge tube containing K2EDTA solution as anticoagulant at 0.25, 0.5, 1, 2, 4, 6, 8, 12 and 24 hr (p.o.). Plasma samples were separated by centrifugation of whole blood and stored below −70±10° C. until bioanalysis. All samples were processed for analysis by protein precipitation using acetonitrile and analysed with fit-for-purpose LC-MS/MS method (LLOQ=1.01 ng/mL). Pharmacokinetic parameters were calculated using the non-compartmental analysis tool of Phoenix WinNonlin® (Version 7.0).

[2] = Metabolic stability assay, rat microsomes; format: in vitro ADME; details: for microsomal CLint: rat recombinant microsomes (Tebu-Xenotech), pH 7.4
Experimental: (§1) Metabolic Stability Assay
(§2) Human and rat recombinant microsomes from Tebu-Xenotech were employed in the assay. They content 0.5 mg/ml of protein. The following quantities were added to each well of a 96-well microplate.
(§3) Plates were incubated at 37° C. and 75 μL samples were taken at 0, 10, 20, 40 and 60 minutes. Samples were transferred to a microplate and 75 μl Acetonitrile were added for inactivating the microsomes, and 30 μl of H2O for improving the chromatographic conditions and kept at 4° C. When all the samples were taken the plate was centrifuged at […] for 30 min at 15° C. Supernatant was taken and injected in the UPLC-MS/MS.
(§4) Stationary phase: Reverse phase Acquity UPLC® BEH C18 1.7 μm (2.1 mm×50 mm) (Waters). Mobile phase: A: 0.1% formic; B:acetonitrile+0.1% formic acid. Flow: 0.6 ml/min. The chromatographic equipment employed was an UPLC QSM Waters Acquity. Compound concentrations were calculated from the UV peak areas. The response was linear in the range between 10 ng/ml and 0.3125 ng/ml. Metabolic stability was calculated from the logarithm of the remaining compound at each of the times evaluated.
(§5) The data will be fitted to the one phase exponential decay equation using GraphPad Prism® software. The half-life (t1/2) generated by the software will be reported. Intrinsic clearance will be calculated using the formula where, k=decay rate constant (min^−1).

[3] = Metabolic stability assay, human microsomes; format: in vitro ADME; details: for microsomal CLint: human recombinant microsomes (Tebu-Xenotech)
Experimental: as §1, §2, §3, §4, §5

[4] = Identification study of metabolite; format: in vitro ADME
Excerpt: In an identification study of metabolite was identified Compound A. Said compound is 2-(3-(6-methylpyridin-2-yl)-4-(quinolin-4-yl)-1H-pyrazol-1-yl)acetic acid and has the following formula: […]
Compound A was identified as the major metabolite of examples 9, 15, 20, 22, 24 and 26, among others.

heart valves = details: rats, all doses tested; cited from earlier work
[5] = rats; cited from earlier work
ALK4 = ALK4 (Homo sapiens (Human), UniProt P36896); details: cited from earlier work
MINK = MINK (Homo sapiens (Human), UniProt Q8N4C8); details: cited from earlier work
TGFβRII = TGFβRII (Homo sapiens (Human), UniProt P37173); details: cited from earlier work
ALK6 = ALK6 (Homo sapiens (Human), UniProt O00238); details: cited from earlier work
ACVR2B = ACVR2B (Homo sapiens (Human), UniProt Q13705); details: cited from earlier work
[6] = in vivo; cited from earlier work
[7] = rats; cited from earlier work; remark: listed apart in the source
[8] = dogs; cited from earlier work
myelofibrosis (MF) = details: mouse models; cited from earlier work
human pancreatic cancer = details: systemic administration; cited from earlier work
[9] = male, Sprague-Dawley, po, plasma

Human TGFβR-1 kinase, sequence (P36897 34-503): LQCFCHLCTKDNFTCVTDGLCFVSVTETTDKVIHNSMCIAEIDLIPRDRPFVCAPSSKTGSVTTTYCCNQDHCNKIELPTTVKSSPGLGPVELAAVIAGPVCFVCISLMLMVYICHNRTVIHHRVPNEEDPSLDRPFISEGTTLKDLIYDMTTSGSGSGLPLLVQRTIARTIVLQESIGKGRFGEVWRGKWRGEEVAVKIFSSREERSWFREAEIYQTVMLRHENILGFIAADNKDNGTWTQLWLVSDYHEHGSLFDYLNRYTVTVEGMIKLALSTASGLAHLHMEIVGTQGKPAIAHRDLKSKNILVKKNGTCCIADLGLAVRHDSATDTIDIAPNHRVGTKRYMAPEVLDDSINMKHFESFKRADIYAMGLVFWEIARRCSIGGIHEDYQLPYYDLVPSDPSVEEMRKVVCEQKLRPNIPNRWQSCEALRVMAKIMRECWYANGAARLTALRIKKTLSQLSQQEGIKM
TGF-beta kinase (ALK-5), sequence (P36897 34-503): as above
ALK4, sequence (P36896 24-505, species assumed): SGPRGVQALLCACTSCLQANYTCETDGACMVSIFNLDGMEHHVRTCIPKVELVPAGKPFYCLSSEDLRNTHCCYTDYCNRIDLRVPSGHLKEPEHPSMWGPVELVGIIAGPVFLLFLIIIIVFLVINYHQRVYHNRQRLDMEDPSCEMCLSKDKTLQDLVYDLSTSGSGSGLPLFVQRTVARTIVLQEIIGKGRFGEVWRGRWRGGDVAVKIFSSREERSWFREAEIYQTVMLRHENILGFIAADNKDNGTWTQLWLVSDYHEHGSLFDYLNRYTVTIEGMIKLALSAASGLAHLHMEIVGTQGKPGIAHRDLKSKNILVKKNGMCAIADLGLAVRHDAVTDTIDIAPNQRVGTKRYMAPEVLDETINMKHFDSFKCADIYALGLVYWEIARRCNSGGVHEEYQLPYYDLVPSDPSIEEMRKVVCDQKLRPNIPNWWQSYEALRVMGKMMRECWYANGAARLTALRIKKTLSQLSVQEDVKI
ALK6, sequence (O00238 14-502): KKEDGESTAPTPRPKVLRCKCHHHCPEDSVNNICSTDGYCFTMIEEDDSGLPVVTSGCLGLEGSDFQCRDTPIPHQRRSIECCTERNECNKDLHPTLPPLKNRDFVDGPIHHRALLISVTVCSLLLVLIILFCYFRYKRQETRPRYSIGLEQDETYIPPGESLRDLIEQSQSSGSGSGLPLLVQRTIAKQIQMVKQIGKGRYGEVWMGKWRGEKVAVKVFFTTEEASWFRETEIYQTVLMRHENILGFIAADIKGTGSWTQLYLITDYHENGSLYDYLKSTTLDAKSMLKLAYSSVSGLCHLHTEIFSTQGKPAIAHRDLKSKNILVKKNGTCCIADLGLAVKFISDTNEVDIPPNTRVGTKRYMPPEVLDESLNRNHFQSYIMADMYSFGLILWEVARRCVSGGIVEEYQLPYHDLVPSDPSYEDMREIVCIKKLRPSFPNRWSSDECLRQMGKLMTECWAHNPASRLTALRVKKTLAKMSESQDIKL
TGFβRII, sequence (P37173 23-567): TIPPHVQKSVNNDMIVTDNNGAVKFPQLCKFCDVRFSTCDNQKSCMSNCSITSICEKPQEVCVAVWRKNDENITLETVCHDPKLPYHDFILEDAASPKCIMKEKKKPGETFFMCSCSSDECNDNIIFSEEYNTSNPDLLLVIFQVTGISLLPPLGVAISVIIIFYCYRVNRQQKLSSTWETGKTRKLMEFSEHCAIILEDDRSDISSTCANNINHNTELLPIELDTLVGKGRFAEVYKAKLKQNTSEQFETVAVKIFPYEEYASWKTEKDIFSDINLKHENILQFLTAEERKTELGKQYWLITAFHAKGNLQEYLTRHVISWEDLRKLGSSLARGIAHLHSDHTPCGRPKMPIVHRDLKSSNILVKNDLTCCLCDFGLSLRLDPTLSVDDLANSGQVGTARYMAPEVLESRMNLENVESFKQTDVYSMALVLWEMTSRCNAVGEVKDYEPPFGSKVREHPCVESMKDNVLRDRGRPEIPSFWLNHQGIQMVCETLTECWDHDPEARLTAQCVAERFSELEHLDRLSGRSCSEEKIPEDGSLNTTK
ACVR2B, sequence (Q13705 19-512, species assumed): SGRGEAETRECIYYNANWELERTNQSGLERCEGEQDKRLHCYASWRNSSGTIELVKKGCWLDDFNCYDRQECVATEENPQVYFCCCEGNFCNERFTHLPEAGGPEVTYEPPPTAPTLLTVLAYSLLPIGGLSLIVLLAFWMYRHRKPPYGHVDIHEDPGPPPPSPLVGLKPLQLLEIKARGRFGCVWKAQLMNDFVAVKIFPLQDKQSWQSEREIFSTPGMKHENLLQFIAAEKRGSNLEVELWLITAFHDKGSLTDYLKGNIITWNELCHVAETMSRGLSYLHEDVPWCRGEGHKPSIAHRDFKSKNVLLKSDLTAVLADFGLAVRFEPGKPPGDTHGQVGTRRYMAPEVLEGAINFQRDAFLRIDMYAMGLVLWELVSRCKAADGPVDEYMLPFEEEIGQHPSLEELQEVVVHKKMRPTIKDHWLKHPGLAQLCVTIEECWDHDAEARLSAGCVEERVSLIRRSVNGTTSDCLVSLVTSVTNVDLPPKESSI
MINK, sequence (Q8N4C8 whole entry): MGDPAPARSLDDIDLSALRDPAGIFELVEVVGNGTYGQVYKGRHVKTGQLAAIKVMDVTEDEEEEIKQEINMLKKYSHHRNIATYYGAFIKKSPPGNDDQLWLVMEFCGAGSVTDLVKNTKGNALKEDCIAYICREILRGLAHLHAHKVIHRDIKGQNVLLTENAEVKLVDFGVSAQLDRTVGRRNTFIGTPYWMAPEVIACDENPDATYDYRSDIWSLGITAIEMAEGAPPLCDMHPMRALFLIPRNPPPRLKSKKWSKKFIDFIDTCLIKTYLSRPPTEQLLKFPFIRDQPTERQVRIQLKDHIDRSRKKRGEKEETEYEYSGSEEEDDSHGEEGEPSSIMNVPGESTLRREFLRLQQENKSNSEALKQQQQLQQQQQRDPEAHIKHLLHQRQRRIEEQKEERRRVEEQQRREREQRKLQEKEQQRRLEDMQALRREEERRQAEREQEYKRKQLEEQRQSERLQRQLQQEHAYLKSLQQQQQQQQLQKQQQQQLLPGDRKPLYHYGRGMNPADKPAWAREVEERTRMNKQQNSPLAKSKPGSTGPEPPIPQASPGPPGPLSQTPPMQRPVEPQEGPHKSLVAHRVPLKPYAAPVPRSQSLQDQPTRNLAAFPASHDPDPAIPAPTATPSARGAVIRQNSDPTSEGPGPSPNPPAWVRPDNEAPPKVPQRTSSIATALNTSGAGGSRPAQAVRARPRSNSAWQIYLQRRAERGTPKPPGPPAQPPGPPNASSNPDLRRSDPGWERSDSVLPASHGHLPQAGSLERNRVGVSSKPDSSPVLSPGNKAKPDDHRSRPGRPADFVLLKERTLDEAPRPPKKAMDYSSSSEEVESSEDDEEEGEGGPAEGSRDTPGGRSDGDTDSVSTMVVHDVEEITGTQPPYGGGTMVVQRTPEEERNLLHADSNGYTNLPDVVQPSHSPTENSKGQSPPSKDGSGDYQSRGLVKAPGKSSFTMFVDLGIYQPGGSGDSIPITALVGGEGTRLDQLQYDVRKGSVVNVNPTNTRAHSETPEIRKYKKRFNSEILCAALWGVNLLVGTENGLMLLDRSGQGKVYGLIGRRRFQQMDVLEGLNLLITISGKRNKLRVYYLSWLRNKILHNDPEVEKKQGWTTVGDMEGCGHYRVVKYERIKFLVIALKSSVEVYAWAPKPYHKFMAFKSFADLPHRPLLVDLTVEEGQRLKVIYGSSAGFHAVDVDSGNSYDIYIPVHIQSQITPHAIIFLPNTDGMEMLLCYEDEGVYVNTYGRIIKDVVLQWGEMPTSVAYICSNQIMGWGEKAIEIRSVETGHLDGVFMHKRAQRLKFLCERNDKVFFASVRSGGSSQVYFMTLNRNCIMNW

Compound: Cc1cccc(-c2nn(CC(=O)NCc3c(F)cccc3F)cc2-c2ccnc3ccccc23)n1 [Example 24, N-(2,6-difluorobenzyl)-2-(3-(6-methylpyridin-2-yl)-4-(quinolin-4-yl)-1H-pyrazol-1-yl)acetamide]
- IC50 (Human TGFβR-1 kinase): < 100 nM
- IC50 (TGF-beta kinase (ALK-5)): < 100 nM
- Plasma concentrations quantifiable (PK parameters not calculable) ([1]; LLOQ 1.01 ng/mL): Concentrations were quantifiable only at 0.25
- % remanent (sampling time 60 min) [2]: 0.01%
- microsomal CLint [2]: 360 µL/min/mg
- % remanent (sampling time 60 min) [3]: 0.05%
- microsomal CLint [3]: 307 µL/min/mg
- Major metabolite identified [4]: Compound A

Compound: c1ccc(-c2nc3c(c(-n4ccc5cnccc54)n2)CCC3)nc1 [AZ12601011]
- Histopathology finding in heart (heart valves): heart valve lesions

Compound: Cc1cccc(-c2nn(CC(=O)NCc3c(C)cccc3C)cc2-c2ccnc3ccccc23)n1 [Example 26, N-(2,6-dimethylbenzyl)-2-(3-(6-methylpyridin-2-yl)-4-(quinolin-4-yl)-1H-pyrazol-1-yl)acetamide]
- IC50 (Human TGFβR-1 kinase): < 100 nM
- IC50 (TGF-beta kinase (ALK-5)): 100 to 500 nM
- % remanent (sampling time 60 min) [2]: 0.08%
- microsomal CLint [2]: 826 µL/min/mg
- % remanent (sampling time 60 min) [3]: 0.05%
- microsomal CLint [3]: 622 µL/min/mg
- Major metabolite identified [4]: Compound A

Compound: Cc1cccc(-c2[nH]c(CNc3ccccc3F)nc2-c2ccc3ncnn3c2)n1 [EW-7197]
- oral bioavailability [5]: 51%

Compound: Cc1ccc(Oc2ccnc(Nc3ccc(S(N)(=O)=O)cc3)c2)c(C)n1 [AZ12799734]
- Histopathology finding in heart (heart valves): heart valve lesions

Compound: Cc1cccc(-c2nn3c(c2-c2ccnc4ccc(C(N)=O)cc24)CCC3)n1 [Galunisertib]
- IC50 (ALK4): 770 nM
- IC50 MINK (MINK): submicromolar
- IC50 TGFβRII (TGFβRII): submicromolar
- IC50 ALK6 (ALK6): submicromolar
- IC50 ACVR2B (ACVR2B): submicromolar
- oral bioavailability [6]: orally bioavailable
- Major target organs for toxicity [7]: the heart and great vessels
- Major target organs for toxicity [8]: the heart and great vessels
- Effect on myelofibrosis (myelofibrosis (MF)): significantly improved MF

Compound: Cc1cccc(-c2nn(CC(=O)NCc3ccccc3Cl)cc2-c2ccnc3ccccc23)n1 [Example 22, N-(2-chlorobenzyl)-2-(3-(6-methylpyridin-2-yl)-4-(quinolin-4-yl)-1H-pyrazol-1-yl)acetamide]
- IC50 (Human TGFβR-1 kinase): < 100 nM
- IC50 (TGF-beta kinase (ALK-5)): < 100 nM
- AUC(0-inf) [1, 9]: 15.3 ng·h/mL
- AUC(0-t) [1, 9]: 13.7 ng·h/mL
- Cmax [1, 9]: 20 ng/mL
- Tmax [1, 9]: 19.8 min
- % remanent (sampling time 60 min) [2]: 0.14%
- microsomal CLint [2]: 644 µL/min/mg
- % remanent (sampling time 60 min) [3]: 0.03%
- microsomal CLint [3]: 378 µL/min/mg
- Major metabolite identified [4]: Compound A

Compound: c1ccc(-c2nn3c(c2-c2ccnc4cc(OCCN5CCOCC5)ccc24)CCC3)nc1 [LY2109761]
- Effect on metastasis (human pancreatic cancer): suppresses liver and other abdominal site metastasis
